Series [1] relates to Candida albicans ATCC 10231. In words: Minimum bactericidal concentration (MBC) in solution, simulated wound fluid. Type of series: cell-based. Conditions: for MBC: Candida albicans, simulated wound fluid, 48 h. As for the experimental part: (§1) Test organisms: P. aeruginosa ATCC 9027 (bacteria), S. aureus ATCC 6538 (bacteria), C. albicans ATCC 10231 (fungi), P. aeruginosa ATCC PAO1 (bacteria, example 1b).
(§2) Test time: 24 h for bacteria and 48 h for fungi
(§3) Start inoculum: 1×10^6 CFU/ml for bacteria, 4×10^6 CFU/ml for fungi.
(§4) Tests were performed in solution to compare the potency of silver sulfate, chlorhexidine phosphate and chlorhexidine gluconate, using simulated wound fluid, SWF (fetal bovine serum (FBS) and Peptone Water (PW) mixed in equal proportions, which correspond to the protein and electrolyte concentration of wound exudates (Emiko Aiba-Kojima, M D et. al Wound Rep Reg (2007) 15 511-520; Trengove, N et al Wound Rep Reg (1996) 4 1067-1927)) as test medium. The aim was to define the lowest concentration of an antimicrobial agent required to kill the specific microorganism. The test microorganisms were suspended in SWF, in which antimicrobial substances were added at different concentration before subculture in well microtiter plates.

Series [2] has as its system P. aeruginosa (ATCC 9027). The series is described as above. Type of series: cell-based. As for the experimental part: as §1, §2, §3, §4
For series [3], the system named is S. aureus ATCC 6538. The description is as above. Type of series: cell-based. As to the method:
as §1, §2, §3, §4

Series [4] relates to Staphylococcus aureus. The following applies: prototype coated with 75 μg/cm^2; sterilized; 2 ml SWF. As for the experimental part: as §1, §2, §3
Series [5] can be described thus: Rate of dissolution of antimicrobial coating in water, LC-MS. Type of series: physicochemical. The following applies: 2 ml water; sterilized coated wound contact layer. As for the experimental part:
The comparison was made between prototypes spray coated with an antimicrobial solution of chlorhexidine phosphate (0.56% by weight) and prototypes spray coated with an antimicrobial solution of chlorhexidine acetate (0.68% by weight). The spray coating was performed with the same parameters and on the same equipment, as described with respect to Example 1 and 2 hereinbefore. After spraying, the samples were sent to sterilization on production site to undergo typical sterilization cycle required for antimicrobial products. […] Triplicates of silicone coated films (wound contact layers) and release liners were separated and placed in wells in contact with 2 ml solution of water during 3 hours, then removed and placed in a new well for 24 hours in order to evaluate instant (>3 h) and short (>24 h) term dissolution. After calibration of the equipment against the solutions of interest, the concentration of CHP and CHAc in the different wells was evaluated by Liquid chromatography-mass spectrometry in order to quantify the amount of antimicrobial coating that was able to dissolve instantly or shortly.

In series [6] the test system is Pseudomonas aeruginosa PAO1 biofilms. In words: Reduction of biofilm counts in contact with CHP solution (collagen matrix, SWF). Type of series: cell-based. Conditions: for Log count / Log reduction: biofilm, 24 h. As for the experimental part:
Tests were performed in solution to evaluate the potency of chlorhexidine phosphate (CHP) against biofilms cultured on a collagen matrix, using SWF as test medium. The aim was to define if concentrations of CHP that can be spray coated on the surface of the silicone contact layer would have an impact on the biofilms. The test microorganism was Pseudomonas aeruginosa PAO1, suspended in a SWF solution, and placed on a collagen matrix in wells of 24-well plates. The well plates were incubated at 37° C., 95% relative humidity for 24 h to induce formation of biofilms. After incubation and formation of biofilms, the antimicrobial substance CHP was added on top of biofilms at different concentrations in triplicates and were incubated for another 24 h at 37° C., 95% relative humidity. […] The number of viable counts were determined by plating on PetriFilms.

For series [7], the system named is all microorganism (same microorganisms as used in Example 1a). Kind of series: Antimicrobial effect of coating sprayed on silicone wound contact layer. The following applies: sterilized, 2 ml SWF. Type of series: cell-based, S. aureus, P. aeruginosa, C. albicans.
Procedure: The prototypes were punched into disks of 7 cm^2 and placed in a well in contact with 2 ml SWF containing a solution of microorganism in suspension (same microorganisms as used in Example 1a). The wound contact layer used in the tests comprised a polyurethane film coated with 200 gsm of a silicone adhesive.
Microorganism growth was evaluated on the silicone layer; i.e. the skin facing surface, and in suspension in the liquid.

As for `O=S(=O)([O-])[O-].[Ag+].[Ag+]` [Silver sulfate, silver sulfate], the MBC in series [1] is reported as 5000 µM; in series [2] (24 h), 160 µM; in series [3] (24 h) it was 310 µM. The “log reduction from inoculum size” value in series [4] was below 4 log.
In the case of `CC(=O)O.CC(=O)O.NC(=N\CCCCCC/N=C(N)/N=C(\N)Nc1ccc(Cl)cc1)/N=C(\N)Nc1ccc(Cl)cc1` [CHAc, chlorhexidine acetate, reference compound], in series [5], the “Instant dissolution % Released from silicone after 3 h” value was 28% and the “Short time dissolution Additional % released from silicone after additional 21 h” value is recorded as 11%.
Turning to `N=C(NCCCCCCNC(=N)NC(=N)Nc1ccc(Cl)cc1)NC(=N)Nc1ccc(Cl)cc1` [CHP, chlorhexidine phosphate], the MBC in series [1] (ATCC10231) is 26 µM; in series [2] (Pseudomonas aeruginosa, ATCC9027, 24 h) it was 26 µM; in series [3] (Staphylococcus aureus, ATCC6538, 24 h) it was 7 µM. Also, in series [1] (ratio silver vs chlorhexidine phosphate), the “times more silver than chlorhexidine phosphate required to kill Candida albicans” value is on record as “up to 190 times”. Moreover, the Log count is listed as 4.4 in series [6] (CHP 37 uM (sample 1)), 3.9 in series [6] (CHP 75 uM (sample 2)) and 4.1 in series [6] (CHP 150 uM (sample 3)). The figures for the Log reduction in series [6] (CHP 37 uM (sample 1)), in series [6] (CHP 75 uM (sample 2)) and in series [6] (CHP 150 uM (sample 3)) were 5.5, 6.1 and 5.9, respectively. Further, in series [6] (CHP solutions of 37 μM, 75 μM, 150 μM), the “log reduction of biofilms vs FDA requirement” value is on record as above 4. The “elimination of microorganism on the silicone surface and in the solution” value in series [7] (prototype sprayed at 45 μg/cm^2) and in series [7] (prototype sprayed at 75 μg/cm^2) was “full elimination” throughout. In series [5], the “Instant dissolution % Released from silicone after 3 h” value stood at 100%. The “Total released in 24 h” value in series [5] turned out to be 100%.
`N=C(NCCCCCCNC(=N)NC(=N)Nc1ccc(Cl)cc1)NC(=N)Nc1ccc(Cl)cc1.O=C(O)[C@H](O)[C@@H](O)[C@H](O)[C@H](O)CO.O=C(O)[C@H](O)[C@@H](O)[C@H](O)[C@H](O)CO` [CHG, chlorhexidine gluconate]: the MBC is 60 µM in series [1], 520 µM in series [2] (24 h) and 30 µM in series [3] (24 h).
